Reference: patent US4389327A, “Use of selected 1,2-dihydro-1,2,4,5-tetrazines as oxygen-scavenging agents” (priority 1982, dated 1983)

Tests used:
[1] = Deoxygenation of air-saturated buffered distilled water (oxygen meter), time for removal of dissolved oxygen; conditions: pH 9.5, about 25° C.; for T1/2, time required for removal of half of the dissolved oxygen: 2.4×10^-4 moles dissolved O2; for T9/10, time for removal of 90% of the oxygen: measured if under 10 minutes
Description: Weighed amounts of this compound were placed in 100 ml volumetric flasks and diluted with deoxygenated, deionized water. Aliquots of this mixture were injected in the test cell as shown in Example 4.
Again, weighed amounts of this compound were placed in 100 ml volumetric flasks and diluted with deoxygenated, deionized water. Aliquots of this mixture were injected into the test cell as shown in Example 4.
These deoxygenation measurements were run in a one liter round bottom flask equipped with a small septum-covered side arm and a standard taper joint into which was inserted the probe of an oxygen meter (Model 54 made by Yellow Springs Instrument Co. of Yellow Springs, Ohio). For each test, the flask was filled with air-saturated, buffered (with Na2 CO3 /NaHCO3 to pH of 9.5) distilled water. The amount of dissolved O2 content in the water was 2.4×10^-4 moles.
After filling with water, the probe was inserted into the flask and a sample of the compound made in Examples 1, 2, or 3 was injected through the side arm.
The times required for removal of half of the dissolved oxygen were measured (T1/2). Also, the times for removal of 90% of the oxygen (T9/10) were also measured if under 10 minutes.

[2] = Water solubility (remark); format: physicochemical
[3] = amount of compound 12.0 × 10^-4 moles
[4] = amount of compound 2.4 × 10^-4 moles
[5] = amount of compound 7.2 × 10^-4 moles

SMILES | T1/2, time required for removal of half of the dissolved oxygen [1, 3] | T1/2, time required for removal of half of the dissolved oxygen [1, 4] | water solubility [2] | T1/2, time required for removal of half of the dissolved oxygen [1, 5] | T9/10, time for removal of 90% of the oxygen [1, 5] | T9/10, time for removal of 90% of the oxygen [1, 3]
NN [hydrazine, reference compound] | > 10 min | – | – | – | – | –
c1ccc(C2=NNC(c3ccccc3)=NN2)cc1 [3,6-diphenyl-1,2-dihydro-1,2,4,5-tetrazine] | – | 6 min | limited water solubility | – | – | –
CCC1=NN=C(CC)NN1 [3,6-diethyl-1,2-dihydro-1,2,4,5-tetrazine] | 0.6 min | 7.5 min | – | 0.9 min | 1.5 min | 0.9 min
CC1=NN=C(C)NN1 [3,6-dimethyl-1,2-dihydro-1,2,4,5-tetrazine] | 0.12 min | – | – | 1.5 min | 2.2 min | 0.30 min
